According to US10689378B2, “Triazolopyridine compounds and uses thereof” (Novartis AG, priority 2016, dated 2020):

What was measured:
[1] = test system: H3K27 methylation in G401 cell; test: ELISA (H3K27 methylation) assay in G401 cells; format: cell-based, human; conditions: Homo sapiens, G-401, read-out: (c) IC50, ELISA Qualified
How it was run: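 IC50 from dose-response fit of percent inhibition relative to DMSO, using H3K27me3/me2 ELISA signal (ECL) normalized to histone H3. Histones HCl-extracted after 48 h compound exposure of G401 cells at up to 20 μM, 8- or 12-point 3-fold series.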

EED (1-441)-His protein = target: T1, EED (1-441)-His protein (Homo sapiens, UniProt O75530); test: EED-H3K27Me3 peptide competition binding assay by AlphaScreen; conditions: read-out: (a) IC50, EED Alphascreen binding Qualified
T1 construct: 30 nM EED (1-441)-His protein
How it was run: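 Serially diluted compound (12 points, 3-fold) incubated 20 min with 30 nM EED(1-441)-His and 15 nM biotin-H3K27Me3(19-33) peptide in 25 mM HEPES pH 8, 0.02% Tween-20, 0.5% BSA. Ni-chelate acceptor/streptavidin donor beads (10 μg/mL each) added, 1 h rt dark; 615 nm emission normalized to controls, dose-response fit for IC50.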

[2] = target: wild type PRC2 (wtPRC2) complex (Homo sapiens, UniProt O75530); test: EED LC-MS assay (SAH production by PRC2); format: biochemical; conditions: read-out: (b) IC50, EED LC-MS Qualified
Experimental: Compounds of the present invention were assessed for their ability to inhibit PRC2 activity in a pentameric complex of EZH2, SUZ12, EED, Rbap48 and AEBP in biochemical assays. The ability of compounds of the present invention to inhibit cellular activity of PRC2 was assessed by analysing histone H3 lysine 27 methylation in human cell lines. The ability of compounds of the present invention to inhibit cancers was derived from their ability to modulate activity in human cancer cell lines bearing specific dependence to PRC2 activity to maintain cancerous growth.
Representative compounds of the present invention were serially and separately diluted 3-fold in DMSO to obtain a total of eight or twelve concentrations. Then the test compounds at each concentration (120 nL of each) were transferred by Mosquito into a 384-well Perkin Elmer ProxiPlate 384 plus plates. Solutions (6 μL) of 24 nM the wild type PRC2 (wtPRC2) complex and 2 μM SAM in reaction buffer (20 mM Tris, pH 8.0, 0.1% BSA, 0.01% Triton, 0.5 mM DTT) were added to the wells that were then incubated with the test compound for 20 min. A 6 μL solution of 3 μM of the peptide substrate H3K27Me0 (histone H3[21-44]-biotin) in reaction buffer was added to initiate each reaction. The final components in the reaction solution include 12 nM wtPRC2 complex, 1 μM SAM, and 1.5 μM H3K27me0 peptide with varying concentration of the compounds. A positive control consisted of the enzyme, 1 μM SAM and 1.5 μM substrate in the absence of the test compound, and a negative control consisted of 1 μM SAM and 1.5 μM substrate only. Each reaction was incubated at rt for 120 min, then stopped by addition of 3 μL per of quench solution (2.5% TFA with 320 nM d4-SAH). The reaction mixture was centrifuged (Eppendorf centrifuge 5810, Rotor A-4-62) for 2 min at 2000 rpm and read on an API 4000 triple quadrupole mass spec with Turbulon Spray (Applied Biosystem) coupled with Prominence UFLC (Shimadzu). The levels of SAH production were then normalized based on the values coming from the positive and negative controls to give percent enzyme activities. The data were then fit to a dose response equation using the program Helios to get the IC50 values of the test compound.

T1 sequence (O75530 whole entry): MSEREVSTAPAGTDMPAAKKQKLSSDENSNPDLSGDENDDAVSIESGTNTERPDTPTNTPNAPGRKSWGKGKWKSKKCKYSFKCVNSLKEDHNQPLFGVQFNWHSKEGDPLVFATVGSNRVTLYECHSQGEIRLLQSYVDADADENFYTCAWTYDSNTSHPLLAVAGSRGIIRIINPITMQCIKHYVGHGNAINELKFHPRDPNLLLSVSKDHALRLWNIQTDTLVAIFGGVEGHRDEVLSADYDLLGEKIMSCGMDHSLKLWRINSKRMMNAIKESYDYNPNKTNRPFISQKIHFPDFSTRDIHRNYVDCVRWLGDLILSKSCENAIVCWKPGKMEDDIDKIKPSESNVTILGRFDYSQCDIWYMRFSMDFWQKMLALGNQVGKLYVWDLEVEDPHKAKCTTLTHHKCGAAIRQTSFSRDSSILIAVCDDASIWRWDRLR
Sequence of wild type PRC2 (wtPRC2) complex (O75530 whole entry): as above
Sequence of wild type PRC2 (wtPRC2) complex (Q15910 whole entry partner): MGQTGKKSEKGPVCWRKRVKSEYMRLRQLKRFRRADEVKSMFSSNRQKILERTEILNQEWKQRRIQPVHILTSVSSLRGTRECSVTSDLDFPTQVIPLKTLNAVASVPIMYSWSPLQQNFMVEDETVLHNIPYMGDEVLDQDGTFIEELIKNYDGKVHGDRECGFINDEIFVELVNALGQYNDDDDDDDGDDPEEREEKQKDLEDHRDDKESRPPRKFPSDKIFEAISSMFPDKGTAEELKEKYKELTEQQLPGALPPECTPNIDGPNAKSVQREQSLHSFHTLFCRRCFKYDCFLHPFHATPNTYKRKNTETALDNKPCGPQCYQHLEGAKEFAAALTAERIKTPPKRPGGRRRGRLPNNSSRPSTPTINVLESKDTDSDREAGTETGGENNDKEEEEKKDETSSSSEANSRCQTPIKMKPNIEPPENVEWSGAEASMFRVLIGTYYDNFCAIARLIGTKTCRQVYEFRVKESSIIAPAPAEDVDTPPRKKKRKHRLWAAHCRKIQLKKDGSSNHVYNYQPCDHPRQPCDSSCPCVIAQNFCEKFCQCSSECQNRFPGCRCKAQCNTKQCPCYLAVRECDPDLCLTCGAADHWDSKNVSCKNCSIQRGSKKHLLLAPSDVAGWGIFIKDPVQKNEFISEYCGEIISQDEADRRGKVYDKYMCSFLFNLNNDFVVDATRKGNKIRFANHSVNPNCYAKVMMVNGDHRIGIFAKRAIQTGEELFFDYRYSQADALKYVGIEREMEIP
Sequence of wild type PRC2 (wtPRC2) complex (Q15022 whole entry partner): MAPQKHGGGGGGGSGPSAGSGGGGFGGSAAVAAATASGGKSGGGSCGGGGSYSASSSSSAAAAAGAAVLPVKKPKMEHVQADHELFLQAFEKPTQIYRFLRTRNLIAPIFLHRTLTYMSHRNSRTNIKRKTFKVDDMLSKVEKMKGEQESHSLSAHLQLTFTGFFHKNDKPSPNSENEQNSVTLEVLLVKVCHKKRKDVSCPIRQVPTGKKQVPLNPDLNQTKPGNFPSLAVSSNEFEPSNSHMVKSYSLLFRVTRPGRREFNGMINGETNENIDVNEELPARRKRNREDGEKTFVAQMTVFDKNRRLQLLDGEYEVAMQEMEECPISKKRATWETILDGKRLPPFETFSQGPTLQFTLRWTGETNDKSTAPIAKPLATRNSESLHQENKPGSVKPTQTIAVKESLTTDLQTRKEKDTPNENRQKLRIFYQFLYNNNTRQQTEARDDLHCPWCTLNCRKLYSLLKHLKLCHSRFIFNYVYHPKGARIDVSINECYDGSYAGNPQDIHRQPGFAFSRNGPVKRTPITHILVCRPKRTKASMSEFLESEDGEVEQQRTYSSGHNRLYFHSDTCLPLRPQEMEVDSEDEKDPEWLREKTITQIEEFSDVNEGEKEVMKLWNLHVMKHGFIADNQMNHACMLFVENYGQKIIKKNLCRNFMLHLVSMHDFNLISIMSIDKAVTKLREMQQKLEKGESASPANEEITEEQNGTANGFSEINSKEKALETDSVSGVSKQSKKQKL
Sequence of wild type PRC2 (wtPRC2) complex (Q09028 whole entry partner): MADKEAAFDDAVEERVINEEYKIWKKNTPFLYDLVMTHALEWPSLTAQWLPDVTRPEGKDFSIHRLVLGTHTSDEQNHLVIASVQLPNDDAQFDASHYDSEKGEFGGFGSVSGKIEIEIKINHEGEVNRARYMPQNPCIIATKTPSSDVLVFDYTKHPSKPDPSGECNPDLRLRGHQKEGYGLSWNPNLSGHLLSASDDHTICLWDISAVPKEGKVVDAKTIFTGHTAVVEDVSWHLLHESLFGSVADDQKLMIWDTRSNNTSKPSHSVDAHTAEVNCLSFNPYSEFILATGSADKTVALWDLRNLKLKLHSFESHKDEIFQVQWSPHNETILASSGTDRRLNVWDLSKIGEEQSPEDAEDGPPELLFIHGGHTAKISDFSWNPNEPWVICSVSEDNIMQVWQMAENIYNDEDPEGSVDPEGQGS
Sequence of wild type PRC2 (wtPRC2) complex (Q6ZN18 whole entry partner): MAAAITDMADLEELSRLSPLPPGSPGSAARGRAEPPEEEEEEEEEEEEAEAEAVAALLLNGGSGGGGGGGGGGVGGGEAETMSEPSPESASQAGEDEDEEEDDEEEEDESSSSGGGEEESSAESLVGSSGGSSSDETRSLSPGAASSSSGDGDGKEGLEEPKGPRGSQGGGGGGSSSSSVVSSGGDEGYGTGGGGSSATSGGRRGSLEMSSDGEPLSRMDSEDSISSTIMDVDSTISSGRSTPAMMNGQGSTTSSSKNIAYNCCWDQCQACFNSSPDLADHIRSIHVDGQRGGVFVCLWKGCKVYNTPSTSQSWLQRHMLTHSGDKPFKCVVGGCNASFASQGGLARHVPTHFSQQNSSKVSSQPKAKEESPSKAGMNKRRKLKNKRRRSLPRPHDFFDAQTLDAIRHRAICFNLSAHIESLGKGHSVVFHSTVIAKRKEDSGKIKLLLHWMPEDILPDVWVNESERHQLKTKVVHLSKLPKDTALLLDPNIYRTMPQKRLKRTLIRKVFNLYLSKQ

Compound	IC50 [1]	IC50 (EED (1-441)-His protein)	IC50 [2]
COc1ccccc1CNc1ccc(-c2c(C)noc2C)c2nncn12 [Example 62, 8-(3,5-dimethylisoxazol-4-yl)-N-(2-methoxybenzyl)-[1,2,4]triazolo[4,3-a]pyridin-5-amine]	66.7 nM	43.6 nM	321 nM
COc1ccccc1CNc1ccc(-c2ccc(C(C)=O)cc2)c2nncn12 [Example 63, 1-(4-(5-((2-methoxybenzyl)amino)-[1,2,4]triazolo[4,3-a]pyridin-8-yl)phenyl) ethanone]	275 nM	76.8 nM	1700 nM
COc1ccccc1CNc1ccc(-c2ccc(C(N)=O)c(Cl)c2)c2nncn12 [Example 64, 2-chloro-4-(5-((2-methoxybenzyl)amino)-[1,2,4]triazolo[4,3-a]pyridin-8-yl) benzamide]	126 nM	31.7 nM	914 nM
COc1ccccc1CNc1ccc(-c2ccc(S(=O)(=O)N3CCCC3)cc2)c2nncn12 [Example 68, N-(2-methoxybenzyl)-8-(4-(pyrrolidin-1-ylsulfonyl)phenyl)-[1,2,4]triazolo[4,3-a] pyridin-5-amine]	49.7 nM	16.7 nM	311 nM
CCN1CCN(c2ccc(-c3ccc(NCc4ccccc4OC)n4cnnc34)cn2)CC1 [Example 69, 8-(6-(4-ethylpiperazin-1-yl)pyridin-3-yl)-N-(2-methoxybenzyl)-[1,2,4]triazolo[4,3-a] pyridin-5-amine]	73.7 nM	28.2 nM	304 nM
COc1ccccc1CNc1ccc(-c2ccc(CN(C)C)cc2F)c2nncn12 [Example 70, 8-(4-((dimethylamino)methyl)-2-fluorophenyl)-N-(2-methoxybenzyl)-[1,2,4] triazolo[4,3-a]pyridin-5-amine]	334 nM	37.6 nM	188 nM
COc1ccccc1CNc1ccc(-c2ccc(S(N)(=O)=O)cc2)c2nncn12 [Example 73, 4-(5-((2-methoxybenzyl)amino)-[1,2,4]triazolo[4,3-a]pyridin-8-yl)benzene sulfonamide]	397 nM	45.2 nM	236 nM
COc1ccccc1CNc1ccc(-c2ccc(Cn3ccnc3)cc2)c2nncn12 [Example 76, 8-(4-((1H-imidazol-1-yl)methyl)phenyl)-N-(2-methoxybenzyl)-[1,2,4] triazolo[4,3-a]pyridin-5-amine]	133 nM	41.9 nM	420 nM
COc1ccccc1CNc1ccc(-c2ccc(NS(C)(=O)=O)cc2)c2nncn12 [Example 82, N-(4-(5-((2-methoxybenzyl)amino)-[1,2,4]triazolo[4,3-a]pyridin-8-yl)phenyl) methanesulfonamide]	330 nM	80.3 nM	509 nM
COc1cc(F)ccc1CNc1ccc(-c2ccc(S(C)(=O)=O)cc2)c2nncn12 [Example 83, N-(4-fluoro-2-methoxybenzyl)-8-(4-(methylsulfonyl)phenyl)-[1,2,4]triazolo[4,3-a]pyridin-5-amine]	815 nM	55.7 nM	491 nM
COc1ccccc1CNc1ccc(-c2ccc(N3CCN(C(C)C)CC3)nc2)c2nncn12 [Example 87, 8-(6-(4-isopropylpiperazin-1-yl)pyridin-3-yl)-N-(2-methoxybenzyl)-[1,2,4] triazolo[4,3-a]pyridin-5-amine]	90.1 nM	39.2 nM	239 nM
COc1ccccc1CNc1ccc(-c2ccnc(C)c2)c2nncn12 [Example 91, N-(2-methoxybenzyl)-8-(2-methylpyridin-4-yl)-[1,2,4] triazolo[4,3-a]pyridin-5-amine]	60.8 nM	37.5 nM	278 nM
COc1ccccc1CNc1ccc(-c2ccc(S(=O)(=O)NCCO)cc2)c2nncn12 [Example 101, N-(2-hydroxyethyl)-4-(5-((2-methoxybenzyl)amino)-[1,2,4]triazolo[4,3-a]pyridin-8-yl)benzenesulfonamide]	102 nM	50.1 nM	2580 nM
COc1ccccc1CNc1ccc(-c2ccc([S+](C)[O-])cc2)c2nncn12 (stereo not drawn) [Example 102, N-(2-methoxybenzyl)-8-(4-(methylsulfinyl)phenyl)-[1,2,4]triazolo[4,3-a]pyridin-5-amine]	68.9 nM	61.9 nM	1460 nM
COc1cccc(F)c1CNc1ccc(-c2ccc(NS(C)(=O)=O)c(F)c2)c2nncn12 [Example 106, N-(2-fluoro-4-(5-((2-fluoro-6-methoxybenzyl)amino)-[1,2,4]triazolo[4,3-a]pyridin-8-yl)phenyl) methanesulfonamide]	53 nM	46.8 nM	454 nM

Stronger by IC50 [1], values ahead:

IC50 [1]	IC50 (EED (1-441)-His protein)	IC50 [2]	Compound
45 nM	54.6 nM	197 nM	COc1ccccc1CNc1ccc(-c2ccnc(N3CCN(C)CC3)c2)c2nncn12 [Example 67, N-(2-methoxybenzyl)-8-(2-(4-methylpiperazin-1-yl)pyridin-4-yl)-[1,2,4] triazolo[4,3-a]pyridin-5-amine]
43.4 nM	34.9 nM	275 nM	COc1ccccc1CNc1ccc(-c2ccc(C(=O)N(C)C)cc2F)c2nncn12 [Example 71, 3-fluoro-4-(5-((2-methoxybenzyl)amino)-[1,2,4]triazolo[4,3-a]pyridin-8-yl)-N,N-dimethylbenzamide]
43.3 nM	12.9 nM	1010 nM	COc1ccccc1CNc1ccc(-c2ccc(C(N)=O)cc2)c2nncn12 [Example 72, 4-(5-((2-methoxybenzyl)amino)-[1,2,4]triazolo[4,3-a]pyridin-8-yl)benzamide]
43.3 nM	21.5 nM	281 nM	COc1cccc(F)c1CNc1ccc(-c2ccc(NS(C)(=O)=O)cc2)c2nncn12 [Example 105, N-(4-(5-((2-fluoro-6-methoxybenzyl)amino)-[1,2,4]triazolo[4,3-a]pyridin-8-yl)phenyl)methane sulfonamide]
41.1 nM	26.5 nM	62.3 nM	COc1ccccc1CNc1ccc(-c2cccc(CCN(C)C)c2)c2nncn12 [Example 94, 8-(3-(2-(dimethylamino)ethyl)phenyl)-N-(2-methoxybenzyl)-[1,2,4]triazolo[4,3-a] pyridin-5-amine]
40 nM	12.4 nM	139 nM	COc1cccc(F)c1CNc1ccc(-c2ccc(S(N)(=O)=O)cc2)c2nncn12 [Example 100, 4-(5-((2-fluoro-6-methoxybenzyl)amino)-[1,2,4]triazolo[4,3-a]pyridin-8-yl)benzenesulfonamide]
29.9 nM	11.8 nM	252 nM	COc1ccccc1CNc1ccc(-c2ccc(CN3CC(F)C3)cc2)c2nncn12 [Example 66, 8-(4-((3-fluoroazetidin-1-yl)methyl)phenyl)-N-(2-methoxybenzyl)-[1,2,4] triazolo[4,3-a]pyridin-5-amine]
26.1 nM	18 nM	75.1 nM	COc1cccc(F)c1CNc1ccc(-c2ccc(S(C)(=O)=O)cc2)c2nncn12 [Example 78, N-(2-fluoro-6-methoxybenzyl)-8-(4-(methylsulfonyl)phenyl)-[1,2,4]triazolo[4,3-a]pyridin-5-amine]
21.7 nM	14.6 nM	106 nM	COc1ccccc1CNc1ccc(-c2ccc(N3CCN(C(C)C)CC3)cc2)c2nncn12 [Example 77, 8-(4-(4-isopropylpiperazin-1-yl)phenyl)-N-(2-methoxybenzyl)-[1,2,4]triazolo[4,3-a] pyridin-5-amine]
12.6 nM	21.4 nM	108 nM	COc1cccc(F)c1CNc1ccc(-c2ccc(C(=O)N3CCCC3)cc2)c2nncn12 [Example 107, (4-(5-((2-fluoro-6-methoxy benzyl)amino)-[1,2,4]triazolo[4,3-a]pyridin-8-yl)phenyl)(pyrrolidin-1-yl) methanone]
